Laboratory results reported in PubChem BioAssay AID652064 (Molecular Libraries Program, Specialized Chemistry Center, …, 2013).
Active and inactive are the calls of the source. How the calls were made is not given here.

Test system: human cells, XBP1 mRNA qRT-PCR
Test: compound effect on XBP1 transcript levels – cell-based, quantitative RT-PCR, medium throughput (AID 652064)

IC50	Structure (SMILES)
7.45 µM (inactive)	CCOc1ccc(-c2nc(CSCC(=O)NCc3ccco3)c(C)o2)cc1
8.67 µM (inactive)	Cc1cc(C(=O)COC(=O)c2ccccc2O)c(C)n1Cc1cccs1
10.2 µM (inactive)	CCN=C1NN=C(c2cc(C)n(Cc3ccco3)c2C)CS1
6.31 µM (inactive)	Cc1cc(C2=NNC(=NC3CC3)SC2)c(C)n1-c1ccccc1F
4.78 µM (inactive)	Cc1cc(C2=NNC(=NC3CC3)SC2)c(C)n1-c1ccccc1
6.85 µM (inactive)	C=CCn1c(C)cc(C2=NN=C(NCC)SC2)c1C

The next lines start with the molecule.

Structure (SMILES)	IC50
Cc1nn(C(C)(C)C)c(C)c1/C=N/OC(=O)Nc1ccc(Cl)cc1	20.1 µM (inactive)
Cc1ccc(NC(=O)O/N=C/c2c(C)nn(C(C)(C)C)c2C)cc1Cl	10.1 µM (inactive)
CC(C)(C)c1ccc(C(=O)Nc2ccc(CC(=O)O)cc2)o1	> 20 µM (inactive)
Cc1ccc(NC(=O)c2cc3ccccc3oc2=O)cc1S(=O)(=O)N(C)C	> 20 µM (inactive)
CC(C)(C)c1ccc(-c2noc(CCC(N)=O)n2)cc1	> 20 µM (inactive)
